Assay results: US20250179078A1, “INHIBITORS OF NLRP3” (PTC THERAPEUTICS, INC., priority 2022, published 2025)

Molecular target: T1, NLRP3 (Homo sapiens, UniProt Q96P20)
T1 construct: host or cells: THP-1 cells differentiated with PMA
Assay: IL-1β Secretion Assay (NLRP3-dependent IL1β secretion in THP1 cells)
Type: cell-based
Details: PMA-differentiated THP-1 cells; compounds incubated 20 h; 2.5 μM Nigericin 3 h; HTRF IL-1β readout; read-out: IC50 IL-1β Inhibition
In short: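 IL-1β in conditioned media, measured by HTRF after 3 h 2.5 μM nigericin stimulation, gave % inhibition fitted logistically for IC50. Before that, PMA-differentiated (100 ng/mL, 24 h) THP-1 cells were preincubated 20 h with 7 compound concentrations (3-fold serial, DMSO 1:200).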

T1 sequence (Q96P20 whole entry): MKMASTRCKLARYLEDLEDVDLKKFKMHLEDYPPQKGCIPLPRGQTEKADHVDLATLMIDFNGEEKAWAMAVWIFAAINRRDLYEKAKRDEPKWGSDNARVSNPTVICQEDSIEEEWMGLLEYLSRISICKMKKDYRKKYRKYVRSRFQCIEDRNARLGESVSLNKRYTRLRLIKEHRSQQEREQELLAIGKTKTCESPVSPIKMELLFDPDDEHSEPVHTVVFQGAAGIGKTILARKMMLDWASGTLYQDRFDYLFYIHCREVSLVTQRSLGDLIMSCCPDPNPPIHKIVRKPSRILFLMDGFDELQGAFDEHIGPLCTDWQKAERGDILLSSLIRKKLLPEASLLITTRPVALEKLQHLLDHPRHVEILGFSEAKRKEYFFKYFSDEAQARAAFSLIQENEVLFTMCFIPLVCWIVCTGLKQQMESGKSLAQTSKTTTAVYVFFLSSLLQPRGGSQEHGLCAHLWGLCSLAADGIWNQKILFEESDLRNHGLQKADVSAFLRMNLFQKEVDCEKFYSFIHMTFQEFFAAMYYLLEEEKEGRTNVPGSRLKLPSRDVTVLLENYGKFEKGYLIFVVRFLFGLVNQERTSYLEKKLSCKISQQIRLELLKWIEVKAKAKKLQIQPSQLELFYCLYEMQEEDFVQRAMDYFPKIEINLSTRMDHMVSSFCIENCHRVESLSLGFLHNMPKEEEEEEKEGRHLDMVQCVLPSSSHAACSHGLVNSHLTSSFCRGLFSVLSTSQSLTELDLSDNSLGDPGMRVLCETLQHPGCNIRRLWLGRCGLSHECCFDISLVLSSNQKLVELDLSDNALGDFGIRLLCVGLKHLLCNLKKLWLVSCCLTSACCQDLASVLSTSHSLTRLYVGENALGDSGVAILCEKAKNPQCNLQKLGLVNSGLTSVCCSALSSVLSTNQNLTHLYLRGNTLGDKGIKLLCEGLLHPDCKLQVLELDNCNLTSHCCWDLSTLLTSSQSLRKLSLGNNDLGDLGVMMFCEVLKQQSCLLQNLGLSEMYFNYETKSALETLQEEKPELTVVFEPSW

| Structure (SMILES) | IC50 [nM] |
| --- | --- |
| COc1ccc(-c2nnc(N[C@H]3C[C@@](C)(O)C3)n3ccc(F)c23)c(OC(F)(F)F)c1 [Compound 54, (1s,3s)-3-({8-fluoro-1-[4-methoxy-2-(trifluoromethoxy)phenyl]pyrrolo[1,2-d][1,2,4]triazin-4-yl}amino)-1-methylcyclobutan-1-ol] | 10 to 100 |
| COc1ccc(-c2nnc(NC3CCNC3=O)n3cncc23)c(C2CC2)c1 (stereo not shown) [Compound 320, 3-{[1-(2-cyclopropyl-4-methoxyphenyl)imidazo[1,5-d][1,2,4]triazin-4-yl]amino}pyrrolidin-2-one] | 10 to 100 |
| Cc1ccc(-c2nnc(NC(C)c3cccc(O)c3)n3cncc23)c(CC(F)(F)F)c1 (stereo not shown) [Compound 297, 3-[1-({1-[4-methyl-2-(2,2,2-trifluoroethyl)phenyl]imidazo[1,5-d][1,2,4]triazin-4-yl}amino)ethyl]phenol] | 1 to 10 |
| COc1ccc(-c2nnc(NC3CC(C(C)(C)O)C3)n3cncc23)c(CC(F)(F)F)c1 (stereo not shown) [Compound 327, 2-[3-({1-[4-methoxy-2-(2,2,2-trifluoroethyl)phenyl]imidazo[1,5-d][1,2,4]triazin-4-yl}amino)cyclobutyl]propan-2-ol] | 10 to 100 |
| COc1ccc(-c2nnc(NC(C)c3cccnc3)n3cncc23)c(OC(F)(F)F)c1 (stereo not shown) [Compound 232, 1-[4-methoxy-2-(trifluoromethoxy)phenyl]-N-[1-(pyridin-3-yl)ethyl]imidazo[1,5-d][1,2,4]triazin-4-amine] | 100 to 300 |
| COc1ccc(-c2nnc(N[C@H]3C[C@@H](CO)C3)n3cncc23)c(OC(F)(F)F)c1 [Compound 291, [(1s,3s)-3-({1-[4-methoxy-2-(trifluoromethoxy)phenyl]imidazo[1,5-d][1,2,4]triazin-4-yl}amino)cyclobutyl]methanol] | 1 to 10 |
| C[C@H](Nc1nnc(-c2ccc(C(F)(F)F)cc2OC(F)F)c2cccn12)c1cccc(O)c1 (single isomer, unassigned) [Compound 103] | 10 to 100 |
| O[C@@H]1COCC[C@H]1Nc1nnc(-c2ccc(C(F)(F)F)cc2CC(F)(F)F)c2cccn12 [Compound 112, (3S,4R)-4-({1-[2-(2,2,2-trifluoroethyl)-4-(trifluoromethyl)phenyl]pyrrolo[1,2-d][1,2,4]triazin-4-yl}amino)oxan-3-ol] | 1 to 10 |
| CC(C)(O)C1CC(Nc2nnc(-c3ccc(C(F)(F)F)cc3OC(F)(F)F)c3cncn23)C1 (stereo not shown) [Compound 325, 2-[3-({1-[2-(trifluoromethoxy)-4-(trifluoromethyl)phenyl]imidazo[1,5-d][1,2,4]triazin-4-yl}amino)cyclobutyl]propan-2-ol] | 10 to 100 |
| COc1ccc(-c2nnc(N[C@@H]3CCC[C@H](O)C3)n3cccc23)c(C2CC2)c1 [Compound 106, (1S,3R)-3-{[1-(2-cyclopropyl-4-methoxyphenyl)pyrrolo[1,2-d][1,2,4]triazin-4-yl]amino}cyclohexan-1-ol] | 10 to 100 |
| CCN1C[C@H](F)C[C@@H](Nc2nnc(-c3ccc(OC)cc3OC(F)(F)F)c3c(F)ccn23)C1 [Compound 53, N-[(3R,5R)-1-ethyl-5-fluoropiperidin-3-yl]-8-fluoro-1-[4-methoxy-2-(trifluoromethoxy)phenyl]pyrrolo[1,2-d][1,2,4]triazin-4-amine] | 1 to 10 |
| COc1ccc(-c2nnc(NC(C)c3cccc(O)c3)n3cncc23)c(OC(F)(F)F)c1 (single isomer, unassigned) [Compound 247] | < 1 |

Continued, values first:

| IC50 [nM] | Structure (SMILES) |
| --- | --- |
| 10 to 100 | Cc1ccc(-c2nnc(N[C@@H]3CCOC[C@H]3O)n3cncc23)c(CC(F)(F)F)c1 [Compound 402, (3S,4R)-4-({1-[4-methyl-2-(2,2,2-trifluoroethyl)phenyl]imidazo[1,5-d][1,2,4]triazin-4-yl}amino)oxan-3-ol] |
| 10 to 100 | FC(F)Oc1cc(C(F)(F)F)ccc1-c1nnc(N[C@@H]2CCCNC2)n2cccc12 [Compound 35, 1-[2-(difluoromethoxy)-4-(trifluoromethyl)phenyl]-N-[(3R)-piperidin-3-yl]pyrrolo[1,2-d][1,2,4]triazin-4-amine] |
| 1 to 10 | Cc1cc2c(-c3ccc(C(F)(F)F)cc3OC(F)F)nnc(NC(C)c3cccc(O)c3)n2n1 (stereo not shown) [Compound 383, 3-[1-({4-[2-(difluoromethoxy)-4-(trifluoromethyl)phenyl]-2-methylpyrazolo[1,5-d][1,2,4]triazin-7-yl}amino)ethyl]phenol] |
| 10 to 100 | Cc1ccc(-c2nnc(N[C@@H]3CCCN(C)C3)n3nc(C)cc23)c(C(F)F)c1 [Compound 364, 4-[2-(difluoromethyl)-4-methylphenyl]-2-methyl-N-[(3R)-1-methylpiperidin-3-yl]pyrazolo[1,5-d][1,2,4]triazin-7-amine] |
| 10 to 100 | CCN1CCC[C@@H](Nc2nnc(-c3ccc(C)cc3S(C)(=O)=O)c3cc(C)nn23)C1 [Compound 368, N-[(3R)-1-ethylpiperidin-3-yl]-4-[2-(methanesulfonyl)-4-methylphenyl]-2-methylpyrazolo[1,5-d][1,2,4]triazin-7-amine] |
| < 1 | Cc1ncn2c(N[C@@H]3CCCN(C)C3)nnc(-c3ccc(C(F)(F)F)cc3CC(F)(F)F)c12 [Compound 279, 8-methyl-N-[(3R)-1-methylpiperidin-3-yl]-1-[2-(2,2,2-trifluoroethyl)-4-(trifluoromethyl)phenyl]imidazo[1,5-d][1,2,4]triazin-4-amine] |
| < 1 | COc1ccc(-c2nnc(N[C@@H]3CCCN(C)C3)n3cc(C)cc23)c(OC(F)(F)F)c1 [Compound 131, 1-[4-methoxy-2-(trifluoromethoxy)phenyl]-7-methyl-N-[(3R)-1-methylpiperidin-3-yl]pyrrolo[1,2-d][1,2,4]triazin-4-amine] |
| < 1 | CCN1CCC[C@@H](Nc2nnc(-c3ccc(OC)cc3OC(F)(F)F)c3cncn23)C1 [Compound 209, N-[(3R)-1-ethylpiperidin-3-yl]-1-[4-methoxy-2-(trifluoromethoxy)phenyl]imidazo[1,5-d][1,2,4]triazin-4-amine] |
| 10 to 100 | Cc1cc2c(-c3ccc(Cl)cc3C(F)F)nnc(N[C@@H]3CCCN(C)C3)n2n1 [Compound 362, 4-[4-chloro-2-(difluoromethyl)phenyl]-2-methyl-N-[(3R)-1-methylpiperidin-3-yl]pyrazolo[1,5-d][1,2,4]triazin-7-amine] |
| 10 to 100 | Cc1ccc(-c2nnc(N[C@H]3C[C@@H](CO)C3)n3cncc23)c(OC(F)F)c1 [Compound 183, [(1s,3s)-3-({1-[2-(difluoromethoxy)-4-methylphenyl]imidazo[1,5-d][1,2,4]triazin-4-yl}amino)cyclobutyl]methanol] |
| 1 to 10 | Cc1ccc(-c2nnc(N[C@@H]3CCCN(C)C3)n3cncc23)c(OC(F)F)c1 [Compound 202, 1-[2-(difluoromethoxy)-4-methylphenyl]-N-[(3R)-1-methylpiperidin-3-yl]imidazo[1,5-d][1,2,4]triazin-4-amine] |
| 1 to 10 | COc1ccc(-c2nnc(N[C@H]3C[C@@](C)(O)C3)n3cncc23)c(C(F)(F)F)c1 [Compound 214, (1s,3s)-3-({1-[4-methoxy-2-(trifluoromethyl)phenyl]imidazo[1,5-d][1,2,4]triazin-4-yl}amino)-1-methylcyclobutan-1-ol] |
| < 1 | CCN1CCC[C@@H](Nc2nnc(-c3ccc(C(F)(F)F)cc3CC(F)(F)F)c3cncn23)C1 [Compound 261, N-[(3R)-1-ethylpiperidin-3-yl]-1-[2-(2,2,2-trifluoroethyl)-4-(trifluoromethyl)phenyl]imidazo[1,5-d][1,2,4]triazin-4-amine] |
